Experimental data as given in the kinase profiling compilation of Christmann-Franck et al. (2016).

Experiments:
Assay in all cases: radiometric filter-binding kinase assay, Kinase HotSpot
Conditions in all cases: compound 0.5 µM; ATP 10 µM
BRSK1 (human) = BRSK1 (human) (UniProt Q8TDC3)
BTK (human) = BTK (human) (UniProt Q06187)
CAMK1 (human) = CAMK1 (human) (UniProt Q14012)
CAMK2G (human) = CAMK2G (human) (UniProt Q13555)
CAMKK2 (human) = CAMKK2 (human) (UniProt Q96RR4)
CDC42BPA (human) = CDC42BPA (human) (UniProt Q5VT25)
CDK3 CCNE1 (human) = CDK3 CCNE1 (human) (UniProt Q00526+P24864)
CLK4 (human) = CLK4 (human) (UniProt Q9HAZ1)
CSK (human) = CSK (human) (UniProt P41240)
Sequence of CSK (human) (P41240 whole entry, looked up): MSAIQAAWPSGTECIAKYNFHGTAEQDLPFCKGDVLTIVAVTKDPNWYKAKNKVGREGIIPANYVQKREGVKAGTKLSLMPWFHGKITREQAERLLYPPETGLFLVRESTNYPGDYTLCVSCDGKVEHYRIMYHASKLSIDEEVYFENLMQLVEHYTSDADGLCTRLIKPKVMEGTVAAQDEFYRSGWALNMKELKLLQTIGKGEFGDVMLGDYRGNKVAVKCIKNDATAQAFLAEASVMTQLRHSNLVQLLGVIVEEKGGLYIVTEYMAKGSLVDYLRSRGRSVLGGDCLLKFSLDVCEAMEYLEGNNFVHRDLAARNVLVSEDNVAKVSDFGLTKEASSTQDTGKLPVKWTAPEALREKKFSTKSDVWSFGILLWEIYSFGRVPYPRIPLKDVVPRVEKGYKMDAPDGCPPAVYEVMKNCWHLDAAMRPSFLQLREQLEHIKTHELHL

CSNK1D (human) = CSNK1D (human) (UniProt P48730)
DYRK4 (human) = DYRK4 (human) (UniProt Q9NR20)
EGFR (human) = EGFR (human) (UniProt P00533)
EPHA2 (human) = EPHA2 (human) (UniProt P29317)
EPHA5 (human) = EPHA5 (human) (UniProt P54756)
Sequence of EPHA5 (human) (P54756 whole entry, looked up): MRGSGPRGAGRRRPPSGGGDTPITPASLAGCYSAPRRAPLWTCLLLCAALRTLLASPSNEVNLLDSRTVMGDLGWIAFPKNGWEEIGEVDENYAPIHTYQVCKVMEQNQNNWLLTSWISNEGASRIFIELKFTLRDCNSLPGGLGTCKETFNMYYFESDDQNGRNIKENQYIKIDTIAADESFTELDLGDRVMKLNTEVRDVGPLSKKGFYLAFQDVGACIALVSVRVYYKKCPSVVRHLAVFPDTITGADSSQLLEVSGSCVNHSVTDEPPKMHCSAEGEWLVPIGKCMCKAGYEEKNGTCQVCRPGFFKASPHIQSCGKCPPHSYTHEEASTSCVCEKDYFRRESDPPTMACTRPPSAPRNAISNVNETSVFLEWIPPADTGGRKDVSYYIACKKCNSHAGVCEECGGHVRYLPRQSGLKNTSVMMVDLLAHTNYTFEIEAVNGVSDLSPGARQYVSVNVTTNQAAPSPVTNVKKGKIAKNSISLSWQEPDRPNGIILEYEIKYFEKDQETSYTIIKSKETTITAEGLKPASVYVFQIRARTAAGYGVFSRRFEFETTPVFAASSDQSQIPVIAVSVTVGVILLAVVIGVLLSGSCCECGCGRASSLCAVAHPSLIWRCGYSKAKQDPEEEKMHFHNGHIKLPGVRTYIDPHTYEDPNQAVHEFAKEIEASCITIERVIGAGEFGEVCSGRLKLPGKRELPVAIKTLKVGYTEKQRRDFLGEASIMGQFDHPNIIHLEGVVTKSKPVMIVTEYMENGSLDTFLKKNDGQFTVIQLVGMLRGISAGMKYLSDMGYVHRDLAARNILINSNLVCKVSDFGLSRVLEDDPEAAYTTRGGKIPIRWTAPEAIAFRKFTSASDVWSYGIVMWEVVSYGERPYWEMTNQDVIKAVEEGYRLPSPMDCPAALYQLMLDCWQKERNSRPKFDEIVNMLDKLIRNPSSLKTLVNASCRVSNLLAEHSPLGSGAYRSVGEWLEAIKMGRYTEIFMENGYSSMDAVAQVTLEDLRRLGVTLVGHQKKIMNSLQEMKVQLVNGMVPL

EPHB1 (human) = EPHB1 (human) (UniProt P54762)
EPHB2 (human) = EPHB2 (human) (UniProt P29323)
ERBB2 (human) = ERBB2 (human) (UniProt P04626)
FGFR3 (human) = FGFR3 (human) (UniProt P22607)
Sequence of FGFR3 (human) (P22607 whole entry, looked up): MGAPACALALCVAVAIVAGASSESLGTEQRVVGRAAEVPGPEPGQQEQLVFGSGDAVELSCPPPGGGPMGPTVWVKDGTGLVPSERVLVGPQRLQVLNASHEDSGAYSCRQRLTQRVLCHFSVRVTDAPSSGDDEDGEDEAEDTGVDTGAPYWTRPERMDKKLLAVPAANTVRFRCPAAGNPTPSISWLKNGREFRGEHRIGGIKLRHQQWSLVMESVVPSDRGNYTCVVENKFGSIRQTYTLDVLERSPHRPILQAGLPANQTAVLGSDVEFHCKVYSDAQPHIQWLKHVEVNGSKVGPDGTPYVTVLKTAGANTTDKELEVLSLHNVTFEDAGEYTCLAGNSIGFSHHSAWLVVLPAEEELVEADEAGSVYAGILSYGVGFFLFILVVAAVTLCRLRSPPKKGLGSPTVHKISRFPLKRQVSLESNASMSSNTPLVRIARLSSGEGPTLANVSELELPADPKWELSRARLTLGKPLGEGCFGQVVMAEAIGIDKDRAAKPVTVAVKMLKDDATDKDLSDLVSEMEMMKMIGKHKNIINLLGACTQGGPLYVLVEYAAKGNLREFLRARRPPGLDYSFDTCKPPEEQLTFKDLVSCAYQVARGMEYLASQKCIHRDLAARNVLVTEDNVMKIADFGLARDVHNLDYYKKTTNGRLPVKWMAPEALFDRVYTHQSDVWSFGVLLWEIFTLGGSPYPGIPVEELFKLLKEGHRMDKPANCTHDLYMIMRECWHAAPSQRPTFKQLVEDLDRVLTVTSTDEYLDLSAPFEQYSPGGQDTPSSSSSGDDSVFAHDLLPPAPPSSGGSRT

GRK6 (human) = GRK6 (human) (UniProt P43250)
GSK3A (human) = GSK3A (human) (UniProt P49840)
GSK3B (human) = GSK3B (human) (UniProt P49841)
KDR (human) = KDR (human) (UniProt P35968)
MAP2K1 (human) = MAP2K1 (human) (UniProt Q02750)
MAP3K2 (human) = MAP3K2 (human) (UniProt Q9Y2U5)
Sequence of MAP3K2 (human) (Q9Y2U5 whole entry, looked up): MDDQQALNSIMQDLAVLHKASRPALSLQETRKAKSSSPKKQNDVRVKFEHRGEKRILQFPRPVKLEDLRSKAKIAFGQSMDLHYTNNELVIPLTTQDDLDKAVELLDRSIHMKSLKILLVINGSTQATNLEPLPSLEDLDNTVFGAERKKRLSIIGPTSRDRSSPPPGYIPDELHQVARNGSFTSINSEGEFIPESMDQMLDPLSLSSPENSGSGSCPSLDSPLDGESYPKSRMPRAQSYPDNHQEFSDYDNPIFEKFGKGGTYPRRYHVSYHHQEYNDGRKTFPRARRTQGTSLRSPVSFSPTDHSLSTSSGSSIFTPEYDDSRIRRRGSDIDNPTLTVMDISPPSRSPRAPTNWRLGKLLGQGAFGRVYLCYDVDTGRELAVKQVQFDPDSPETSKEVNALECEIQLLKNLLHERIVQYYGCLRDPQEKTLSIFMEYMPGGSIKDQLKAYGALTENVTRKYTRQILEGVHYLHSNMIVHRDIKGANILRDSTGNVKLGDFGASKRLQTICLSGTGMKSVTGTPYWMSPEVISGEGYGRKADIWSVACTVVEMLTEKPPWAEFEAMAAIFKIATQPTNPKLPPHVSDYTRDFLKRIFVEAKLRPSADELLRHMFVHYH

MAP3K9 (human) = MAP3K9 (human) (UniProt P80192)
MAP4K5 (human) = MAP4K5 (human) (UniProt Q9Y4K4)
MAPK1 (human) = MAPK1 (human) (UniProt P28482)
MAPK3 (human) = MAPK3 (human) (UniProt P27361)
Sequence of MAPK3 (human) (P27361 whole entry, looked up): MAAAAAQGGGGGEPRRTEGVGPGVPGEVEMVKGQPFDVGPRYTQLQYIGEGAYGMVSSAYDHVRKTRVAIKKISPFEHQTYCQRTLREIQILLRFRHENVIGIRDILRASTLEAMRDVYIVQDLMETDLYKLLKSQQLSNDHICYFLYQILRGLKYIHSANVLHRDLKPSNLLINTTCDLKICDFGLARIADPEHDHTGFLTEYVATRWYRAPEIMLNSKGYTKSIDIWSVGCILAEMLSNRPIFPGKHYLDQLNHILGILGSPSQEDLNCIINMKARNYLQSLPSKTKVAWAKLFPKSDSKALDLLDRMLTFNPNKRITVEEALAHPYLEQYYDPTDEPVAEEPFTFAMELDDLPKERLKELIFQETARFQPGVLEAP

NEK4 (human) = NEK4 (human) (UniProt P51957)
PAK6 (human) = PAK6 (human) (UniProt Q9NQU5)
PIM3 (human) = PIM3 (human) (UniProt Q86V86)
PRKG2 (human) = PRKG2 (human) (UniProt Q13237)
RPS6KA3 KD1 KD2 (human) = RPS6KA3 KD1 KD2 (human) (UniProt P51812)
RPS6KA5 KD2 (human) = RPS6KA5 KD2 (human) (UniProt O75582)
SRPK1 (human) = SRPK1 (human) (UniProt Q96SB4)
SRPK3 (human) = SRPK3 (human) (UniProt Q9UPE1)
Sequence of SRPK3 (human) (Q9UPE1 whole entry, looked up): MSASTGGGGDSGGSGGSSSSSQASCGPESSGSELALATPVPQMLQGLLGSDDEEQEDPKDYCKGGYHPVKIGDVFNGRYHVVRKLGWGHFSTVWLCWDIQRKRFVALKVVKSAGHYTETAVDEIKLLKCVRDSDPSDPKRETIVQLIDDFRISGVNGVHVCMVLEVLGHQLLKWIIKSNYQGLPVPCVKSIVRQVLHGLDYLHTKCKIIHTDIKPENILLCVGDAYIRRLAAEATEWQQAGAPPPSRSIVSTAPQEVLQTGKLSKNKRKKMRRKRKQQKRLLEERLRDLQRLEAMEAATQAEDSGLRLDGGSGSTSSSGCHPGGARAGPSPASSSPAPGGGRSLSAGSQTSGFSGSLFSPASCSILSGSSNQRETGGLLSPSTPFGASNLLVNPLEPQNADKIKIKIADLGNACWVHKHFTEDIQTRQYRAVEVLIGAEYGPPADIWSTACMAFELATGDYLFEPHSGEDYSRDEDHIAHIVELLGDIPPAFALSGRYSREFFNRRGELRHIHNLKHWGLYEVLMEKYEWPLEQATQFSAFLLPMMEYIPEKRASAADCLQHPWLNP

STK25 (human) = STK25 (human) (UniProt O00506)
Sequence of STK25 (human) (O00506 whole entry, looked up): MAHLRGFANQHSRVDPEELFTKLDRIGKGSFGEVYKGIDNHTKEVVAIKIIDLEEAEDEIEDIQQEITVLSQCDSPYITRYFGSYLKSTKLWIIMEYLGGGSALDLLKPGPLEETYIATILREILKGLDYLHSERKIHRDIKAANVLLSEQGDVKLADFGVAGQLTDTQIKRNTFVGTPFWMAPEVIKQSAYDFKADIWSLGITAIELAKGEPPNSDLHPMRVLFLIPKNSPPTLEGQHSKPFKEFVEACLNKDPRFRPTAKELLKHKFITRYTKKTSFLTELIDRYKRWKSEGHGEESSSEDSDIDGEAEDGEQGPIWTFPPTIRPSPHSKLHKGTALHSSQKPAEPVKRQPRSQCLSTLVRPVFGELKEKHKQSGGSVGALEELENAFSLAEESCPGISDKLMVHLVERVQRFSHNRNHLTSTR

SYK (human) = SYK (human) (UniProt P43405)
TGFBR1 (human) = TGFBR1 (human) (UniProt P36897)
Sequence of TGFBR1 (human) (P36897 whole entry, looked up): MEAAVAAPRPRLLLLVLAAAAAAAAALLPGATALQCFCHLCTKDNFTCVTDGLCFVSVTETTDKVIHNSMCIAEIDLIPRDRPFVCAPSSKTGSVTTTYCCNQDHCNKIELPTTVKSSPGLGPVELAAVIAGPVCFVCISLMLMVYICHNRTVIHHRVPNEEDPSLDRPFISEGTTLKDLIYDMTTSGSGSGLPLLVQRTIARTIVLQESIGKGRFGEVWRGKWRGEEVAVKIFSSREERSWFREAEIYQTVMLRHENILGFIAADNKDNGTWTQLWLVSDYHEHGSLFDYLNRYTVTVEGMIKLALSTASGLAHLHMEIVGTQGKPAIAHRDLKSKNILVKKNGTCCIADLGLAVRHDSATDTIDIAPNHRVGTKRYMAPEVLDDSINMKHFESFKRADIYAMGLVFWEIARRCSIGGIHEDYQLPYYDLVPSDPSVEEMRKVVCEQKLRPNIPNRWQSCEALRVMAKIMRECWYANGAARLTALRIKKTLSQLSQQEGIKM

ULK1 (human) = ULK1 (human) (UniProt O75385)
WEE1 (human) = WEE1 (human) (UniProt P30291)
ZAP70 (human) = ZAP70 (human) (UniProt P43403)

## CC(C)(C)c1cc(C=C(C#N)C#N)cc(Br)c1O
BRSK1 (human)
  residual activity: 94%
BTK (human)
  residual activity: 101%
CAMK1 (human)
  residual activity: 97.5%
CAMK2G (human)
  residual activity: 104%
CAMKK2 (human)
  residual activity: 92.5%
CDC42BPA (human)
  residual activity: 101%
CDK3 CCNE1 (human)
  residual activity: 98.9%
CLK4 (human)
  residual activity: 88.6%
CSK (human)
  residual activity: 106%
CSNK1D (human)
  residual activity: 85.5%
DYRK4 (human)
  residual activity: 98.2%
EGFR (human)
  residual activity: 106%
EPHA2 (human)
  residual activity: 105%
EPHA5 (human)
  residual activity: 106%
EPHB1 (human)
  residual activity: 114%
EPHB2 (human)
  residual activity: 100%
ERBB2 (human)
  residual activity: 95.7%
FGFR3 (human)
  residual activity: 92.8%
GRK6 (human)
  residual activity: 94.6%
GSK3A (human)
  residual activity: 104%
GSK3B (human)
  residual activity: 107%
KDR (human)
  residual activity: 97.8%
MAP2K1 (human)
  residual activity: 90.8%
MAP3K2 (human)
  residual activity: 93.7%
MAP3K9 (human)
  residual activity: 90.2%
MAP4K5 (human)
  residual activity: 95.8%
MAPK1 (human)
  residual activity: 91.3%
MAPK3 (human)
  residual activity: 105%
NEK4 (human)
  residual activity: 93.7%
PAK6 (human)
  residual activity: 101%
PIM3 (human)
  residual activity: 89.1%
PRKG2 (human)
  residual activity: 87.6%
RPS6KA3 KD1 KD2 (human)
  residual activity: 92.2%
RPS6KA5 KD2 (human)
  residual activity: 108%
SRPK1 (human)
  residual activity: 101%
SRPK3 (human)
  residual activity: 79.4%
STK25 (human)
  residual activity: 102%
SYK (human)
  residual activity: 97.6%
TGFBR1 (human)
  residual activity: 103%
ULK1 (human)
  residual activity: 88.2%
WEE1 (human)
  residual activity: 90.9%
ZAP70 (human)
  residual activity: 91.6%

## Ic1cccc(CSc2nnc(-c3ccncc3)o2)c1
BRSK1 (human)
  residual activity: 101%
BTK (human)
  residual activity: 95.6%
CAMK1 (human)
  residual activity: 102%
CAMK2G (human)
  residual activity: 96.8%
CAMKK2 (human)
  residual activity: 85.1%
CDC42BPA (human)
  residual activity: 98.4%
CDK3 CCNE1 (human)
  residual activity: 87.4%
CLK4 (human)
  residual activity: 90%
CSK (human)
  residual activity: 101%
CSNK1D (human)
  residual activity: 103%
DYRK4 (human)
  residual activity: 98.5%
EGFR (human)
  residual activity: 97.1%
EPHA2 (human)
  residual activity: 102%
EPHA5 (human)
  residual activity: 100%
EPHB1 (human)
  residual activity: 101%
EPHB2 (human)
  residual activity: 87.7%
ERBB2 (human)
  residual activity: 99.6%
FGFR3 (human)
  residual activity: 106%
GRK6 (human)
  residual activity: 100%
GSK3A (human)
  residual activity: 42.7%
GSK3B (human)
  residual activity: 59.8%
KDR (human)
  residual activity: 78.1%
MAP2K1 (human)
  residual activity: 95.4%
MAP3K2 (human)
  residual activity: 106%
MAP3K9 (human)
  residual activity: 108%
MAP4K5 (human)
  residual activity: 99.5%
MAPK1 (human)
  residual activity: 107%
MAPK3 (human)
  residual activity: 95.8%
NEK4 (human)
  residual activity: 93.7%
PAK6 (human)
  residual activity: 74%
PIM3 (human)
  residual activity: 106%
PRKG2 (human)
  residual activity: 105%
RPS6KA3 KD1 KD2 (human)
  residual activity: 96.4%
RPS6KA5 KD2 (human)
  residual activity: 97.2%
SRPK1 (human)
  residual activity: 103%
SRPK3 (human)
  residual activity: 101%
STK25 (human)
  residual activity: 96.2%
SYK (human)
  residual activity: 92.2%
TGFBR1 (human)
  residual activity: 94.4%
ULK1 (human)
  residual activity: 97.1%
WEE1 (human)
  residual activity: 97.2%
ZAP70 (human)
  residual activity: 107%

## O=C1Nc2ccc(Br)cc2/C1=C\c1cc2c([nH]1)CCCC2
BRSK1 (human)
  residual activity: 80.8%
BTK (human)
  residual activity: 90.5%
CAMK1 (human)
  residual activity: 98.4%
CAMK2G (human)
  residual activity: 92.4%
CAMKK2 (human)
  residual activity: 68.1%
CDC42BPA (human)
  residual activity: 81.9%
CDK3 CCNE1 (human)
  residual activity: 93.2%
CLK4 (human)
  residual activity: 84.5%
CSK (human)
  residual activity: 98.5%
CSNK1D (human)
  residual activity: 72.4%
DYRK4 (human)
  residual activity: 102%
EGFR (human)
  residual activity: 87.4%
EPHA2 (human)
  residual activity: 110%
EPHA5 (human)
  residual activity: 91.3%
EPHB1 (human)
  residual activity: 85.5%
EPHB2 (human)
  residual activity: 85.4%
ERBB2 (human)
  residual activity: 115%
FGFR3 (human)
  residual activity: 55.8%
GRK6 (human)
  residual activity: 95.8%
GSK3A (human)
  residual activity: 88.5%
GSK3B (human)
  residual activity: 94.1%
KDR (human)
  residual activity: 70.9%
MAP2K1 (human)
  residual activity: 84.8%
MAP3K2 (human)
  residual activity: 93.6%
MAP3K9 (human)
  residual activity: 53.4%
MAP4K5 (human)
  residual activity: 17.7%
MAPK1 (human)
  residual activity: 103%
MAPK3 (human)
  residual activity: 95%
NEK4 (human)
  residual activity: 80.5%
PAK6 (human)
  residual activity: 89.8%
PIM3 (human)
  residual activity: 87.5%
PRKG2 (human)
  residual activity: 92.4%
RPS6KA3 KD1 KD2 (human)
  residual activity: 80.9%
RPS6KA5 KD2 (human)
  residual activity: 90.3%
SRPK1 (human)
  residual activity: 98.3%
SRPK3 (human)
  residual activity: 77.8%
STK25 (human)
  residual activity: 102%
SYK (human)
  residual activity: 90.5%
TGFBR1 (human)
  residual activity: 100%
ULK1 (human)
  residual activity: 69.4%
WEE1 (human)
  residual activity: 95.9%
ZAP70 (human)
  residual activity: 93.9%

## O=C(c1cc2cc(O)ccc2[nH]1)c1cc2cc(O)ccc2[nH]1
BRSK1 (human)
  residual activity: 53.6%
BTK (human)
  residual activity: 86.8%
CAMK1 (human)
  residual activity: 97.4%
CAMK2G (human)
  residual activity: 89.5%
CAMKK2 (human)
  residual activity: 84.2%
CDC42BPA (human)
  residual activity: 90.2%
CDK3 CCNE1 (human)
  residual activity: 85.2%
CLK4 (human)
  residual activity: 79.1%
CSK (human)
  residual activity: 106%
CSNK1D (human)
  residual activity: 92.5%
DYRK4 (human)
  residual activity: 99.7%
EGFR (human)
  residual activity: 97.6%
EPHA2 (human)
  residual activity: 101%
EPHA5 (human)
  residual activity: 100%
EPHB1 (human)
  residual activity: 97%
EPHB2 (human)
  residual activity: 76.7%
ERBB2 (human)
  residual activity: 113%
FGFR3 (human)
  residual activity: 92.1%
GRK6 (human)
  residual activity: 102%
GSK3A (human)
  residual activity: 75.7%
GSK3B (human)
  residual activity: 78.7%
KDR (human)
  residual activity: 69.9%
MAP2K1 (human)
  residual activity: 103%
MAP3K2 (human)
  residual activity: 102%
MAP3K9 (human)
  residual activity: 42.6%
MAP4K5 (human)
  residual activity: 28.7%
MAPK1 (human)
  residual activity: 113%
MAPK3 (human)
  residual activity: 107%
NEK4 (human)
  residual activity: 87.6%
PAK6 (human)
  residual activity: 74.4%
PIM3 (human)
  residual activity: 98.9%
PRKG2 (human)
  residual activity: 80.6%
RPS6KA3 KD1 KD2 (human)
  residual activity: 37.7%
RPS6KA5 KD2 (human)
  residual activity: 96.1%
SRPK1 (human)
  residual activity: 92.2%
SRPK3 (human)
  residual activity: 99.4%
STK25 (human)
  residual activity: 105%
SYK (human)
  residual activity: 72%
TGFBR1 (human)
  residual activity: 93.4%
ULK1 (human)
  residual activity: 60.1%
WEE1 (human)
  residual activity: 90.6%
ZAP70 (human)
  residual activity: 101%
